Assay results: the supplement of paper PMC10307832

Key:
Experiment in all cases: relative viability (nuclei count vs DMSO), 5 days (fraction); higher = more cells survive
[1] = compound: COc1cc2c(Oc3ccc4[nH]c(C)cc4c3F)ncnc2cc1OCCCN1CCCC1 [Cediranib] + Nc1ncn([C@H]2C[C@H](O)[C@@H](CO)O2)c(=O)n1 [Decitabine] (partner 2 µM)
Procedure, shortened: (§1)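 Lung cancer cell lines in 1536-well plates were dosed by pin tool the day after seeding, either with one drug alone or with a fixed anchor-drug dose plus five library-drug doses (not always all listed) in √10 steps. After 5 days, cells were fixed and their nuclei stained in one step (final 0.05% Triton X-100, 1% formaldehyde, 1 ug/ml Hoechst), then counted on 4× images. Relative viability is the nuclei count in treated wells divided by that in vehicle wells. Values are medians of duplicate plates.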

[2] = compound: COc1cc2c(Oc3ccc4[nH]c(C)cc4c3F)ncnc2cc1OCCCN1CCCC1 [Cediranib] + COc1cccc2cc(-c3nc([C@H]4CC[C@H](C(=O)O)CC4)n4ncnc(N)c34)[nH]c12 [OSI-027] (partner 0.5 µM)
Procedure, shortened: as §1

[3] = compound: O=C(C[C@H]1NCCC[C@@H]1O)Cn1cnc2cc(Br)c(Cl)cc2c1=O (racemic) [Halofuginone] + CS(=O)(=O)CCNCc1ccc(-c2ccc3ncnc(Nc4ccc(OCc5cccc(F)c5)c(Cl)c4)c3c2)o1 [Lapatinib] (partner 2 µM)
Procedure, shortened: as §1

[4] = compound: Nc1ncn([C@H]2C[C@H](O)[C@@H](CO)O2)c(=O)n1 [Decitabine] + Nc1nc2[nH]cc(CCc3ccc(C(=O)N[C@@H](CCC(=O)O)C(=O)O)cc3)c2c(=O)[nH]1 [Pemetrexed] (partner 0.2 µM)
Procedure, shortened: as §1

Cell Line	relative viability ([1]; first compound 0.04 µM)	relative viability ([1]; first compound 0.1265 µM)	relative viability ([1]; first compound 0.4 µM)	relative viability ([1]; first compound 1.265 µM)	relative viability ([1]; first compound 4 µM)	relative viability ([2]; first compound 0.04 µM)	relative viability ([2]; first compound 0.1265 µM)	relative viability ([2]; first compound 0.4 µM)	relative viability ([2]; first compound 1.265 µM)	relative viability ([2]; first compound 4 µM)	relative viability ([3]; first compound 0.001 µM)	relative viability ([3]; first compound 0.003162 µM)	relative viability ([3]; first compound 0.01 µM)	relative viability ([3]; first compound 0.03162 µM)	relative viability ([3]; first compound 0.1 µM)	relative viability ([4]; first compound 0.04 µM)	relative viability ([4]; first compound 0.1265 µM)	relative viability ([4]; first compound 0.4 µM)	relative viability ([4]; first compound 1.265 µM)	relative viability ([4]; first compound 4 µM)
SW 1573	0.606	0.685	0.542	0.408	0.553	0.682	0.644	0.604	0.427	0.662	1.13	1.29	1.1	1.1	1.07	0.812	0.844	0.87	0.494	0.323
NCI-H1993		0.629	0.666	0.518	0.651	0.421	0.579	0.548	0.506	0.545	0.792	0.86	0.862	0.789	0.823	0.542	0.583	0.607	0.506	0.403
NCI-H661	0.663	0.598	0.529	0.531	0.588	0.734	0.686	0.71	0.686	0.669	0.558	0.546	0.424	0.508	0.366	0.779	0.657	0.572	0.481	0.404
NCI-H520	0.572	0.588	0.502	0.488	0.459	0.403	0.239	0.211	0.202	0.226	0.98	0.811	0.96	0.704	0.401	0.545	0.468	0.477	0.317	0.293
ChaGo-K-1	0.51	0.376	0.506	0.57	0.784	0.441	0.363	0.535	0.572	0.615						0.27	0.261	0.253	0.251	0.269
NCI-H2085	0.55	0.515	0.537	0.526	0.541	0.801	0.786	0.759	0.48	0.856	0.769	0.762	0.695	0.778	0.649	0.782	0.807	0.511	0.513	0.364
NCI-H1651	0.482	0.538	0.669	0.542	0.652	0.59	0.652	0.721	0.606	0.778	0.939	0.908	0.763	0.768	0.34	0.543	0.43	0.434	0.331	0.278
RERF-LC-KJ	0.657	0.629	0.715	0.666	0.684	0.572	0.511	0.547	0.492	0.523	0.951	0.888	0.795	0.833	0.874	0.441	0.403	0.215	0.401	0.369
NCI-H1755	0.71	0.66	0.753	0.707	0.724	0.601	0.565	0.689	0.694	0.81	0.993	0.992	0.992	1.04	0.997	0.477	0.376	0.406	0.419	0.365
SK-MES-1	0.427	0.394	0.436	0.384	0.387	0.666	0.633	0.608	0.542	0.788	0.486	0.454	0.474	0.409	0.342	0.828	0.682	0.458	0.343	0.338
NCI-H1703											1.15	1.28	0.95	0.792	0.427					
NCI-H522	0.702	0.746	0.76	0.661	0.656	0.719	0.77	0.686	0.707	0.694						0.979	0.839	0.677	0.705	0.505
LCLC-103H	0.789	0.815	0.781	0.731	0.761	0.469	0.501	0.474	0.467	0.504						0.426	0.362	0.284	0.379	0.333
NCI-H1563						0.799	1.03	0.767	0.744	0.796	0.757	0.853	0.879	0.627	0.506	0.791	0.899	1.43	0.751	0.858
SW 900	0.45	0.421	0.425	0.444	0.53	0.712	0.642	0.504	0.59	0.69						0.415	0.411	0.345	0.277	0.303
NCI-H2228						0.552	0.767	0.496	0.335	0.68	1.06	1.02	0.908	0.657	0.121	0.232	0.208	0.179	0.166	0.163
NCI-H1623						0.426	0.442	0.477	0.423	0.392										
IA-LM											0.85	0.781	0.579	0.518	0.0907					
EBC-1											0.223	0.247	0.233	0.266	0.245					
NCI-H441	0.288	0.234	0.275	0.251	0.286	0.809		0.658	0.675	0.632						0.214	0.203	0.184	0.197	0.235
NCI-H1299											0.995	1	0.916	0.941	0.65					
